Reference: PubChem BioAssay (NCI)
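Interpolation was linear, between the two tested concentrations surrounding the appropriate level; five concentrations were tested over 48 hours in 96-well plates. At the TGI there is no net growth.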

Columns and labels:
Test in all cases: NCI tumour cell line growth inhibition, 48 h
NCI-H460 lung = tested on: NCI-H460 lung
SF-539 CNS = tested on: SF-539 CNS
K-562 leukemia = tested on: K-562 leukemia
DU-145 prostate = tested on: DU-145 prostate
HOP-92 NSCLC = tested on: HOP-92 NSCLC
786-0 renal = tested on: 786-0 renal
OVCAR-4 ovarian = tested on: OVCAR-4 ovarian
SF-268 CNS = tested on: SF-268 CNS
NCI/ADR-RES ovarian = tested on: NCI/ADR-RES ovarian
SK-MEL-5 melanoma = tested on: SK-MEL-5 melanoma
NCI-H522 lung = tested on: NCI-H522 lung
COLO 205 colon = tested on: COLO 205 colon
RPMI-8226 leukemia = tested on: RPMI-8226 leukemia

Row | Structure (SMILES) | TGI (NCI-H460 lung) | TGI (SF-539 CNS) | TGI (K-562 leukemia) | TGI (DU-145 prostate) | TGI (HOP-92 NSCLC) | TGI (786-0 renal) | TGI (OVCAR-4 ovarian) | TGI (SF-268 CNS) | TGI (NCI/ADR-RES ovarian) | TGI (SK-MEL-5 melanoma) | TGI (NCI-H522 lung) | TGI (COLO 205 colon) | TGI (RPMI-8226 leukemia)
1 | O=S1(=O)N=C(SCc2ccccc2)N(c2ccccc2)c2ccncc21 | > 100 µM | > 100 µM | > 100 µM | > 100 µM | 82.7 µM | > 100 µM | > 100 µM | > 100 µM | 91.1 µM | > 100 µM | 56.3 µM | 38.3 µM | 
2 | O=C(Nc1ccc(Cl)cc1)NS(=O)(=O)c1coc2cc(F)ccc2c1=O | > 100 µM | > 100 µM | > 100 µM |  |  | > 100 µM | > 100 µM | > 100 µM | > 100 µM | > 100 µM | > 100 µM | > 100 µM | 
3 | O=C1NC2ON=C(c3ccccc3)C2C2ON=C(c3ccccc3)N12 (centres undefined) | > 100 µM | > 100 µM |  | > 100 µM |  | > 100 µM |  | > 100 µM | > 100 µM | > 100 µM | > 100 µM | > 100 µM | 
4 | COc1cc2c(oc(=O)c3c4oc([Si](C)(C)C)cc4cc(OC)c23)c2cccc(OCc3ccccc3)c12 | > 100 µM | 56.5 µM | > 100 µM |  | > 67.2 µM | 34.8 µM | > 88.5 µM | > 70.7 µM |  | > 100 µM | > 100 µM | > 100 µM | > 87 µM
5 | COc1ccc2c3c1O[C@]1(C)C34CCN(C)C(C2)C42C=C[C@@]1(OC)c1c(O)ccc(O)c12 | > 100 µM | > 100 µM | > 100 µM |  | > 100 µM | > 100 µM |  | > 100 µM |  | > 100 µM | > 100 µM | > 100 µM | > 100 µM
6 | C[N+](C)(C)CC(=O)N/N=C/c1oc(-c2c(O)ccc3ccccc23)c(-c2c(O)ccc3ccccc23)c1[N+](=O)[O-] | 49.3 µM | 29.4 µM | > 100 µM | 47.6 µM | 50.9 µM | 44.3 µM | 80.8 µM | 47.3 µM |  | 22.9 µM | 31.1 µM | 42.2 µM | > 100 µM
7 | COC1=C(OC)C(=O)C(Cc2c(Cl)nc3sc(C)cn23)=C(C)C1=O | 37.8 µM | 34.6 µM | 45.5 µM | 61 µM |  | 38.8 µM | 20.6 µM | 37 µM | 38.1 µM | 23.9 µM | 30.2 µM | 34.7 µM | 31.8 µM
8 | CS(=O)(=O)c1nc(-c2cc3c(c(S(C)(=O)=O)n2)CCC3)cc2c1CCCCC2 |  |  | > 100 µM | > 100 µM |  | > 100 µM | > 100 µM | 92.2 µM | > 100 µM | > 100 µM | 58.9 µM | > 100 µM | > 100 µM
9 | Cc1cc(=O)[nH]c(-n2[nH]c(C)c(CCO)c2=O)n1 | > 100 µM | > 100 µM | > 100 µM | > 100 µM |  | > 100 µM | > 100 µM | > 100 µM | > 100 µM | > 100 µM | > 100 µM | > 100 µM | > 100 µM
10 | O=C1/C(=C/c2cccc(Br)c2)CCc2ccccc21 | 28.5 µM | 31.4 µM | 29.9 µM | 30.9 µM | 28.2 µM | 29.8 µM | 26.7 µM | 21.8 µM | 33.2 µM |  | 24.3 µM | 40.8 µM | 
11 | C/C(=N\NS(=O)(=O)c1ccc(C)cc1)C(CN1CCCCC1)C(c1ccccc1)c1c(O)c2ccccc2oc1=O (centres undefined) | > 100 µM | > 100 µM | > 100 µM |  | > 100 µM | > 100 µM | > 100 µM | > 100 µM |  | > 100 µM | > 100 µM | > 100 µM | > 100 µM
12 | COC(=O)C(=O)C(C(=O)C(=O)Nc1ccc(F)cc1)c1nc2ccc([N+](=O)[O-])cc2[nH]c1=O (centres undefined) | > 100 µM | > 100 µM | > 100 µM |  | > 100 µM | > 100 µM | > 100 µM | > 100 µM |  | > 100 µM | > 100 µM | > 100 µM | > 100 µM
13 | O=c1c2c(oc3ccccc13)-c1ccccc1OC2 |  | 72.7 µM | > 100 µM | > 100 µM |  | 64.2 µM |  | > 100 µM | > 100 µM | > 100 µM | > 100 µM |  | > 100 µM
14 | O=C1c2cc(Cl)ccc2-n2cnnc2C2CSCN12 (centres undefined) | > 100 µM |  | > 100 µM | > 100 µM |  | > 100 µM | > 100 µM | > 100 µM | > 100 µM | > 100 µM | > 100 µM | > 100 µM | > 100 µM
15 | CC1C2(C)OC(=N)C(C#N)(C(c3ccccc3)O2)C1(C#N)C#N (centres undefined) | 25.1 µM | 40.3 µM | > 100 µM | > 100 µM | 29.7 µM | 51.1 µM |  | 76.1 µM | > 100 µM | 30.3 µM |  | 30.4 µM | 
16 | O=C(CSc1nnc(-c2ccc(N=Cc3ccc(Cl)cc3)cc2)o1)Nc1ccccc1[N+](=O)[O-] | > 100 µM |  | > 100 µM |  |  | > 100 µM | > 100 µM | > 100 µM |  | > 100 µM | > 100 µM | > 100 µM | > 100 µM
17 | O=C1CCCCC/C1=C\c1cccc(Cl)c1 | 87.7 µM |  |  | > 100 µM | > 100 µM | > 100 µM | 83.3 µM | 68.2 µM |  | > 100 µM | > 100 µM | > 100 µM | > 100 µM
18 | COC(=O)/C=C(/C)n1nc2ccccc2n1 | > 100 µM |  | > 100 µM | > 100 µM |  | > 100 µM | > 100 µM | > 100 µM | > 100 µM | > 100 µM | > 100 µM | > 100 µM | > 100 µM
19 | CC[C@]1(Cc2ccc(OC)c(OC)c2)C=[N+]([O-])O[C@H](OC2CCCC2(c2ccccc2)c2ccccc2)[C@@H]1OC(=O)c1ccccc1 (some centres undefined) | > 100 µM | > 100 µM | > 100 µM | > 56.3 µM | > 100 µM | > 100 µM | > 100 µM | > 100 µM | > 62.7 µM | 12.7 µM | > 100 µM | > 100 µM | 
20 | O=c1[nH]c2cc(Cl)ccc2nc1/C(=N\O)C(O)c1cccc([N+](=O)[O-])c1 (centres undefined) | > 100 µM | > 100 µM | > 100 µM |  | > 100 µM | > 100 µM | > 100 µM |  |  | > 100 µM | > 100 µM | > 100 µM | > 100 µM
21 | CC(=O)OCC1=C(CCC#N)N2C(=O)C(NC(=O)Cc3cccs3)C2S(=O)C1 (centres undefined) | > 100 µM | > 100 µM | > 100 µM |  | > 100 µM | > 100 µM | > 100 µM | > 100 µM |  | > 100 µM | > 100 µM | > 100 µM | > 100 µM
22 | O=C(c1cccs1)N(C(=S)N1CCN(c2ccccn2)CC1)c1ccccc1 | > 100 µM | > 100 µM | > 100 µM |  | > 100 µM | > 100 µM | > 100 µM | > 100 µM |  | > 100 µM | > 100 µM | > 100 µM | > 100 µM
23 | CC(=O)OC1COC(n2c(O)c(N=NC(N)=S)c3cc(Br)ccc32)C(OC(C)=O)C1OC(C)=O (centres undefined) | > 100 µM | > 100 µM | > 100 µM |  | > 100 µM | > 100 µM | > 100 µM | > 100 µM |  | > 100 µM | > 100 µM | > 100 µM | > 100 µM
24 | NC(=O)N/N=C(\CC1OC(=O)c2ccccc21)c1ccco1 (centres undefined) | > 100 µM | > 100 µM | > 100 µM |  | > 100 µM | > 100 µM | > 100 µM | > 100 µM |  | > 100 µM | > 100 µM | > 100 µM | 
25 | CC(C)OC(=O)c1ccc(NCc2cc(O)ccc2O)cc1Cl | 23.7 µM | 6.07 µM |  | 26.4 µM | 18 µM | 10.8 µM | 21.9 µM | > 66.4 µM | > 100 µM | 11.1 µM |  | 9.08 µM | 
26 | COC(=O)C1(C(=O)OC)Cc2ccc(OC)cc2C2=C1C(=O)c1ccccc1C2=O | 33 µM | 30.7 µM | 4.37 µM | 30.3 µM | 15.9 µM | > 47.9 µM | 3.43 µM | 26.2 µM | > 28.4 µM | 19.3 µM | 8.89 µM | 40.5 µM | 
27 | COC(=O)N/N=C(\Cc1ccccc1)CN(C)C | > 100 µM | > 100 µM | > 100 µM |  | > 100 µM | > 100 µM |  | > 100 µM |  | > 100 µM | > 100 µM | > 100 µM | > 100 µM
28 | COC(=O)c1ccc(C)cc1CC1Cc2cc(C)ccc2C1=O (centres undefined) | > 100 µM | > 100 µM | > 100 µM |  |  | > 100 µM | > 100 µM | > 100 µM | > 100 µM |  | > 100 µM | > 100 µM | > 100 µM
29 | CNS(=O)(=O)NN(C)S(=O)(=O)c1ccccc1 | > 100 µM | > 100 µM | > 100 µM |  |  | > 100 µM | > 100 µM | > 100 µM |  | > 100 µM | > 100 µM | > 100 µM | > 100 µM
30 | CCOC(=O)c1cccn1S(=O)(=O)c1cc(Cl)ccc1NC(=O)CC | > 100 µM | > 100 µM | > 100 µM | > 100 µM | > 100 µM | > 100 µM | > 100 µM |  |  | > 100 µM | 63.1 µM | 65.4 µM | > 100 µM
